BigSolDB 2.1

O=P1(C(Nc2ccccc2)c2ccccc2)OCC2(CO1)COP(=O)(C(Nc1ccccc1)c1ccccc1)OC2 (configuration not stated)
Details	solubility (mole fraction)
in acetonitrile, 328.45 K	0.000146
in acetonitrile, 333.15 K	0.000169
in acetonitrile, 338.25 K	0.000194
in benzene, 283.25 K	3.1e-05
in benzene, 288.35 K	4.3e-05
in benzene, 293.15 K	6.4e-05
in benzene, 298.45 K	8.2e-05
in benzene, 303.35 K	9.8e-05
in benzene, 308.45 K	0.000123
in benzene, 313.25 K	0.000145
in benzene, 318.3 K	0.000178
in benzene, 323.35 K	0.000199
in benzene, 328.25 K	0.000218
in benzene, 333.15 K	0.000239
in benzene, 338.35 K	0.000266
in dichloromethane, 283.25 K	0.000164
in dichloromethane, 288.3 K	0.000202
in dichloromethane, 293.35 K	0.000268
in dichloromethane, 298.25 K	0.000308
in dichloromethane, 303.35 K	0.000342
in dichloromethane, 308.15 K	0.000388
in dichloromethane, 313.25 K	0.000423
in diethyl ether, 283.35 K	5.5e-05
in diethyl ether, 288.15 K	8.6e-05
in diethyl ether, 292.95 K	0.000126
in diethyl ether, 298.65 K	0.000213
in diethyl ether, 303.25 K	0.000299
in ethanol, 288.25 K	4e-05
in ethanol, 293.15 K	5e-05
in ethanol, 303.25 K	7.4e-05
in ethanol, 308.55 K	9e-05
in ethanol, 313.45 K	0.000113
in ethanol, 317.85 K	0.000141
in ethanol, 323.25 K	0.00017
in ethanol, 328.25 K	0.0002
in ethanol, 333.25 K	0.000243
in ethanol, 338.25 K	0.000285
in ethanol, 343.15 K	0.00036
in isopropanol, 283.45 K	0.000107
in isopropanol, 287.95 K	0.000131
in isopropanol, 293.45 K	0.000156
in isopropanol, 298.15 K	0.000176
in isopropanol, 303.25 K	0.000209
in isopropanol, 308.15 K	0.000234
in isopropanol, 313.25 K	0.000256
in isopropanol, 318.15 K	0.000289
in isopropanol, 323.65 K	0.000312
in isopropanol, 328.55 K	0.000348
in isopropanol, 333.3 K	0.000393
in isopropanol, 338.5 K	0.000414
in toluene, 283.15 K	0.000765
in toluene, 288.25 K	0.00117
in toluene, 293.25 K	0.0015
in toluene, 298.45 K	0.00199
in toluene, 303.15 K	0.00238
in toluene, 308.15 K	0.00287
in toluene, 313.45 K	0.00344
in toluene, 318.65 K	0.00388
in toluene, 323.25 K	0.00449
in toluene, 328.25 K	0.00494
in toluene, 333.25 K	0.00542
in toluene, 338.25 K	0.00614
